pEC50: −log10 of the molar value. *1 amine or outer side, *2 acyl side, *3 side chain or, on linkers, in order; H or OH if unused. Where a SMILES comes first, the peptide text is derived from it. [ ]: non-standard residue; d: D form. The star is where a group is joined. CH3O(CH2CH2O)11CH2CH2CO = COCCOCCOCCOCCOCCOCCOCCOCCOCCOCCOCCOCCC(=O)*; X1 = O=C(Cn1cnc2ccc(N3CCN([*:1])CC3)cc2c1=O)[*:2]; Arachidoyl = CCCCCCCCCCCCCCCCCCCC(=O)*
Legend:
Format in all cases: cell-based
hNPY2R [1] = target: T1, hNPY2R (Homo sapiens, UniProt P49146); test: CaFlux Assay (FLIPR), Y2R; parameters: expressed in transfected cells; host or cells: HEK-293 stably transfected with G protein chimera Gαqi9
T1 sequence (P49146 1-381): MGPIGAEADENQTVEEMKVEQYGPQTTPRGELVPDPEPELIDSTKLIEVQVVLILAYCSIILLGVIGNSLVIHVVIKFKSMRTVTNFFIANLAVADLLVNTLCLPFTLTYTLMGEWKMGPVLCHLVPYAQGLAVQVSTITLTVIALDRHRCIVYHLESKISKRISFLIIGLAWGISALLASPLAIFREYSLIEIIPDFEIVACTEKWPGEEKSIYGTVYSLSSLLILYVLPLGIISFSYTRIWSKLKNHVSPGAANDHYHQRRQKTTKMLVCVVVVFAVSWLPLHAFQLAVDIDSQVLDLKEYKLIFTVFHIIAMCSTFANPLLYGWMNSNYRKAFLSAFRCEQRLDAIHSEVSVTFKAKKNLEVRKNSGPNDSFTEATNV
Method: HEK-293 cells were stably transfected with the G protein chimera Gαqi9 and the hygromycin-B resistance gene were further transfected with the human NPY2 receptor and G418 antibiotic selection. Following selection in both hygromycin-B and G418, individual clones were assayed for their response to PYY. The transfected cells were cultured in DMEM medium supplemented with 10% fetal bovine serum, 50 μg/mL hygromycin-B, 2 mM glutamine, 100 U/mL penicillin, 100 μg/mL streptomycin and 250 μg/mL G418. Cells are harvested with trypsin-EDTA and counted using ViaCount reagent. The cell suspension volume is adjusted to 4.8×10^5 cells/mL with complete growth media. Aliquots of 25 μL are dispensed into 384 well Poly-D Lysine coated black/clear microplates (Falcon) and the microplates were placed in a 37° C. CO2 incubator overnight. Loading Buffer (Calcium-3 Assay Kit, Molecular Devices) was prepared by dissolving the contents of one vial (Express Kit) into […] Hank's Balanced Salt Solution containing 20 mM HEPES and 5 mM probenecid. Aliquots of 25 μL of diluted dye were dispensed into the cell plates and the plates are then incubated for 1 hour at 37° C. During the incubation, test compounds were prepared at 3.5× the desired concentration in HBSS (20 mM HEPES)/0.05% BSA/1% DMSO and transferred to a 384-well plate for use on FLIPR. After incubation, both the cell and compound plates were brought to the FLIPR and 20 μL of the diluted compounds were transferred to the cell plates by the FLIPR. During the assay, fluorescence readings were taken simultaneously from all 384 wells of the cell plate every 1.5 seconds. Five readings were taken to establish a stable baseline, and then 20 μL of sample was rapidly (30 μL/sec) and simultaneously added to each well of the cell plate. The fluorescence was continuously monitored before, during and after sample addition for a total elapsed time of 100 seconds. Responses (increase in peak fluorescence) in each well following addition were determined. The initial fluorescence reading from each well, prior to ligand stimulation, was used as a zero baseline value for the data from that well. The responses are expressed as % of maximal response of the positive control.

Y4R = Y4R (Homo sapiens, UniProt P50391); test: CaFlux Assay (FLIPR), Y4R
Y1R = target: T2, Y1R (Homo sapiens, UniProt P25929); test: CaFlux Assay (FLIPR), Y1R
T2 sequence (P25929 1-384): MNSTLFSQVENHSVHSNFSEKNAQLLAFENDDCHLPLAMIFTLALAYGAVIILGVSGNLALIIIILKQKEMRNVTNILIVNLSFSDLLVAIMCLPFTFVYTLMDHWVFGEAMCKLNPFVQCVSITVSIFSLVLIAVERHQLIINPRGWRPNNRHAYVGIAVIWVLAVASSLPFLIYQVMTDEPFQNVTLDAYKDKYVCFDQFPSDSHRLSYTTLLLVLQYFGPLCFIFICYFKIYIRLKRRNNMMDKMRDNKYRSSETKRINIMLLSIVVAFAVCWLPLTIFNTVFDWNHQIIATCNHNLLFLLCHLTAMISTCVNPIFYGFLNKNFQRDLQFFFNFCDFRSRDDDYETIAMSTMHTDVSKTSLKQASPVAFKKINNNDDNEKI

hNPY2R [2] = target: T1, hNPY2R; test: cAMP Agonist Assay, HEK293/hNPY2R; parameters: expressed in transfected cells; host or cells: HEK293/hNPY2R (G418 selection)
Method: In this example, the following materials were used: 384-well plate; Tropix cAMP-Screen Kit; cAMP ELISA System (Applied Biosystems, cat. #T1505; CS 20000); Forskolin (Calbiochem cat. # 344270); cells: HEK293/hNPY2R; growth medium: Dulbecco's modified eagle medium (D-MEM, Gibco); 10% Fetal bovine serum (FBS, Gibco), heat-inactivated; 1% Penicillin/Streptomycin (Pen 10000 unit/mL: Strep […], Gibco); […] G418 (Geneticin, Gibco cat. # 11811-031); and plating medium: DMEM/F12 w/o phenol red (Gibco); 10% FBS (Gibco, cat. # 10082-147), heat-inactivated; 1% Penicillin/Streptomycin (Gibco, cat. # 15140-122); […] G418 (Geneticin, Gibco, cat. # 11811-031).
On the first day, medium was discarded, and the monolayer cells were washed with 10 mL PBS per flask (T225). After decanting with PBS, 5 mL VERSENE (Gibco, cat #1504006) was used to dislodge the cells (5 min @37 C). The flask was gently tapped and the cell suspension was pooled. Each flask was rinsed with 10 mL plating medium and centrifuged at 1000 rpm for 5 min. The suspension was pooled and counted. The suspension was resuspended in plating medium at a density of 2.0×10^5 cells/mL for HEK293/hNPY2R. 50 microliters of cells (HEK293/hNPY2R-10,000 cells/well) were transferred into the 384-well plate using Multi-drop dispenser. The plates were incubated at 37° C. overnight. On the second day, the cells were checked for 75-85% confluence. The media and reagents were allowed to come to room temperature. Before the dilutions were prepared, the stock solution of stimulating compound in dimethyl sulphoxide (DMSO, Sigma, cat #D2650) was allowed to warm up to 32 C for 5-10 min. The dilutions were prepared in DMEM/F12 with 0.5 mM 3-Isobutyl-1-methylxanthine (IBMX, Calbiochem, cat #410957) and 0.5 mg/mL BSA. The final DMSO concentration in the stimulation medium was 1.1% with Forskolin concentration of 5 μM. The cell medium was tapped off with a gentle inversion of the cell plate on a paper towel. 50 μL of stimulation medium was placed per well (each concentration done in four replicates). The plates were incubated at room temperature for 30 min, and the cells were checked under a microscope for toxicity. After 30 minutes of treatment, the stimulation media was discarded and […] of Assay Lysis Buffer (provided in the Tropix kit) was added. The plates were incubated for 45 min @ 37° C. 20 μL of the lysate was transferred from stimulation plates into the pre-coated antibody plates (384-well) from the Tropix kit. 10 μL of AP conjugate and 20 μL of anti-cAMP antibody was added. The plates were incubated at room temperature while shaking for 1 hour. The plates were then washed 5 times with Wash Buffer, 70 μL per well for each wash. The plates were tapped to dry. 30 μL/well of CSPD/Saphire-II RTU substrate/enhancer solution was added and incubated for 45 min @ RT (shake). Signal for 1 sec/well in a Luminometer. (VICTOR-V) was measured.

Y5R = target: T3, Y5R (Homo sapiens, UniProt Q15761); test: CaFlux Assay (FLIPR), Y5R
T3 sequence (Q15761 1-445): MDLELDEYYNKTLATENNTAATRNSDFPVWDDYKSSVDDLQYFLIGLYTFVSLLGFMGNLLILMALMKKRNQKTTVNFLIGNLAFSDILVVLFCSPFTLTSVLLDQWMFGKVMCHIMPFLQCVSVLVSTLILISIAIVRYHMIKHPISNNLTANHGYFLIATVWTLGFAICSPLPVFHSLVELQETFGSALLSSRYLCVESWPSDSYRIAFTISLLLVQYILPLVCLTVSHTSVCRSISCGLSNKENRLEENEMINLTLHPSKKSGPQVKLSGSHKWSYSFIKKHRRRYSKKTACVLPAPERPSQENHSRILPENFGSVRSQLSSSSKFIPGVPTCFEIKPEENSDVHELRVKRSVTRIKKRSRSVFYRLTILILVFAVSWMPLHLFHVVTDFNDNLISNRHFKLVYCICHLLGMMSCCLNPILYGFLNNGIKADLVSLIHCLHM

Sequence of Y4R (P50391 whole entry): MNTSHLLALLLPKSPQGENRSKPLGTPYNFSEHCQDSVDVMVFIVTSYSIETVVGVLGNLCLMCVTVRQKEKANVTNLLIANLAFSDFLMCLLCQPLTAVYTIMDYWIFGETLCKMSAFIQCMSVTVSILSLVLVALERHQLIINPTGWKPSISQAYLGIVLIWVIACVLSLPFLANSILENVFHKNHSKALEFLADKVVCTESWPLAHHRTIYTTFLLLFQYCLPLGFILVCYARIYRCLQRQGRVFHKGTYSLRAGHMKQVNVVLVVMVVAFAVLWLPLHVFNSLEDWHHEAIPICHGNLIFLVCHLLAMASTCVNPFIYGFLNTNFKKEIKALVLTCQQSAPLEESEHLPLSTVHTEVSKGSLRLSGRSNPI

| Compound | pEC50 (hNPY2R [1]) | pEC50 (Y4R) | pEC50 (Y1R) | pEC50 (hNPY2R [2]) | pEC50 (Y5R) | Y5R FLIPR agonist character (partial agonist mark) (Y5R) |
| --- | --- | --- | --- | --- | --- | --- |
| CCCCCCCCCCCCCCCC(=O)NCCCCCC(=O)N[C@H](C(=O)N[C@@H](CCCCNC(=O)CCOCCOCCOCCOCCOCCOCCOCCOCCOCCOCCOCCOCCOCCOCCOCCOCCOCCOCCOCCOCCOCCOCCOCCOC)C(=O)N1CCN(c2ccc3ncn(CC(=O)N[C@@H](CCCNC(=N)N)C(=O)N[C@@H](Cc4c[nH]cn4)C(=O)N[C@@H](Cc4ccc(O)cc4)C(=O)N[C@@H](CC(C)C)C(=O)N[C@@H](CC(N)=O)C(=O)N[C@@H](Cc4c[nH]c5ccccc45)C(=O)N[C@H](C(=O)N[C@H](C(=O)N[C@@H](CCCNC(=N)N)C(=O)N[C@@H](CCC(N)=O)C(=O)N(C)[C@@H](CCCNC(=N)N)C(=O)N[C@@H](Cc4ccc(O)cc4)C(N)=O)[C@@H](C)O)C(C)C)c(=O)c3c2)CC1)[C@@H](C)CC [Example 34] | 10.17 | < 5.30 | < 5.30 | 9.74 | 6.01 |  |
| CCCCCCCCCCCCCCCC(=O)NCCOCCNC(=O)CCC(=O)NCCCC[C@H](NC(=O)[C@@H](NC(=O)CCOCCOCCOCCOCCOCCOCCOCCOCCOCCOCCOCCOC)[C@@H](C)CC)C(=O)N1CCN(c2ccc3ncn(CC(=O)N[C@@H](CCCNC(=N)N)C(=O)N[C@@H](Cc4c[nH]cn4)C(=O)N[C@@H](Cc4ccc(O)cc4)C(=O)N[C@@H](CC(C)C)C(=O)N[C@@H](CC(N)=O)C(=O)N[C@@H](Cc4c[nH]c5ccccc45)C(=O)N[C@H](C(=O)N[C@H](C(=O)N[C@@H](CCCNC(=N)N)C(=O)N[C@@H](CCC(N)=O)C(=O)N(C)[C@@H](CCCNC(=N)N)C(=O)N[C@@H](Cc4ccc(O)cc4)C(N)=O)[C@@H](C)O)C(C)C)c(=O)c3c2)CC1 [Example 13] | 10.26 | < 5.30 | < 5.30 | 9.82 | 6.40 |  |
| CCCCCCCCCCCCCCCCCCCC(=O)N[C@@H](CCC(=O)O)C(=O)N[C@@H](CCC(=O)O)C(=O)N[C@H](C(=O)N[C@@H](CCCCNC(=O)CCOCCOCCOCCOCCOCCOCCOCCOCCOCCOCCOCCOC)C(=O)N1CCN(c2ccc3ncn(CC(=O)N[C@@H](CCCNC(=N)N)C(=O)N[C@@H](Cc4c[nH]cn4)C(=O)N[C@@H](Cc4ccc(O)cc4)C(=O)N[C@@H](Cc4c[nH]cn4)C(=O)N[C@@H](CC(N)=O)C(=O)N[C@@H](Cc4c[nH]c5ccccc45)C(=O)N[C@H](C(=O)N[C@H](C(=O)N[C@@H](CCCNC(=N)N)C(=O)N[C@@H](CCC(N)=O)C(=O)N[C@@H](CCCNC(=N)N)C(=O)N[C@@H](Cc4ccc(O)cc4)C(N)=O)[C@@H](C)O)C(C)C)c(=O)c3c2)CC1)[C@@H](C)CC [Example 55] (Arachidoyl-EEIK(CH3O(CH2CH2O)11CH2CH2CO)[X1]RHYHNWVTRQRY-NH2) | 10.57 | < 5.22 | < 5.22 | 10.85 | 8.06 |  |
| CCCCCCCCCCCCCCCC(=O)NCCOCCNC(=O)CCC(=O)NCCCC[C@H](NC(=O)[C@@H](NC(=O)CCOCCOCCOCCOCCOCCOCCOCCOCCOCCOCCOCCOCCOCCOCCOCCOC)[C@@H](C)CC)C(=O)N1CCN(c2ccc3ncn(CC(=O)N[C@@H](CCCNC(=N)N)C(=O)N[C@@H](Cc4c[nH]cn4)C(=O)N[C@@H](Cc4ccc(O)cc4)C(=O)N[C@@H](CC(C)C)C(=O)N[C@@H](CC(N)=O)C(=O)N[C@@H](Cc4c[nH]c5ccccc45)C(=O)N[C@H](C(=O)N[C@H](C(=O)N[C@@H](CCCNC(=N)N)C(=O)N[C@@H](CCC(N)=O)C(=O)N(C)[C@@H](CCCNC(=N)N)C(=O)N[C@@H](Cc4ccc(O)cc4)C(N)=O)[C@@H](C)O)C(C)C)c(=O)c3c2)CC1 [Example 14] | 10.49 | < 5.30 | < 5.30 | 10.10 | 6.43 | P.A |
| CCCCCCCCCCCCCCCCCCCC(=O)N[C@@H](CCC(=O)N[C@@H](CCC(=O)NCCCC[C@H](NC(=O)[C@@H](NC(=O)CCOCCOCCOCCOCCOCCOCCOCCOCCOCCOCCOCCOC)[C@@H](C)CC)C(=O)N1CCN(c2ccc3ncn(CC(=O)N[C@@H](CCCNC(=N)N)C(=O)N[C@@H](Cc4c[nH]cn4)C(=O)N[C@@H](Cc4ccc(O)cc4)C(=O)N[C@@H](CC(C)C)C(=O)N[C@@H](CC(N)=O)C(=O)N[C@@H](Cc4c[nH]c5ccccc45)C(=O)N[C@H](C(=O)N[C@H](C(=O)N[C@@H](CCCNC(=N)N)C(=O)N[C@@H](CCC(N)=O)C(=O)N(C)[C@@H](CCCNC(=N)N)C(=O)N[C@@H](Cc4ccc(O)cc4)C(N)=O)[C@@H](C)O)C(C)C)c(=O)c3c2)CC1)C(=O)O)C(=O)O [Example 24] |  |  |  |  |  | P.A |
